Each molecule was assayed against T1, human GPR40 (Homo sapiens, UniProt O14842) (assay: Induction of Ca2+ (calcium flux assay) using human GPR40 expression cell line). Details: read-out: EC0.5.
T1 construct: expressed in transfected cells; host or cells: CHO-K1
Type: cell-based
Description: Evaluation of the Test Compounds for Induction of Ca^2+ Using Human GPR40 Expression Cell Line
The cell line expressing human GPR40 was generated by transfection of the GPR40 expression vector into CHO-K1 cell, and used in the following calcium flux assay.
The cell line was cultured in cell-culture medium (F-12 (Invitrogen) supplemented with 10% (v/v) FBS (Fetal Bovine Serum; Invitrogen), 0.5 mg/ml Geneticin (Invitrogen) and 1% (v/v) Antibiotic-Antimycotic solution (Invitrogen)) under the condition of 5% CO2 and 37° C. For calcium flux assay, the cells were diluted with the cell-culture medium to a concentration of 5×10^5 cells/ml, and the diluted cell suspension was dispensed in amount of 100 μl/well to a 96-well transparent bottom black polystyrene cell culture plate (Corning) and then cultured for 24 hours. The following concentrations of test compounds were added to these cells, and then the changes in intracellular calcium concentration were measured by FlexStation II384 (Molecular Devices). The following solution was prepared before the measurement.
First, a buffer solution for assay was prepared for use in the manufacture of fluorescent dye solution. This buffer solution was prepared by adding 1M HEPES solution (Invitrogen) to HBSS (Hanks' Balanced Salt Solution) (Invitrogen) and then adding 1M NaOH (Nacalai Tesque) to adjust pH to 7.4. Then the fluorescent dye solution was prepared according to the manufacturer's instruction attached to Calcium 5 Assay Kit (Molecular Devices), and the final DMSO concentration was adjusted to 2%.
The fluorescent dye solution was added in an amount of 100 μl/well to supernatant of the cell culture plate cultured for 24 hours. The plate was cultured for 1 hour under the condition of 5% CO2 and 37° C. so that the fluorescent dye was inserted into the cell.
Test compounds (i.e., the compounds prepared in the Examples) dissolved in dimethyl sulfoxide (DMSO ACROS) were diluted 200-fold in the buffer solution for assay to prepare compound solutions corresponding to the respective concentrations. […] 50 μl of the prepared sample solutions was added to each well of 96-well polypropylene plates (NUNC), and thereby a compound plate was prepared. Finally, the compound plate and the cell culture plate cultured for 1 hour with the fluorescent dye were placed in FlexStation II384.
After the above pre-treatment, the change in the intracellular calcium concentration when each concentration of the test compound solutions was added at 50 μl was measured by FlexStation II^384.
Then, the relative activity values depending on the concentration of the compound were plotted using Prism 4 software (GraphPad) to calculate the EC0.5 value.

T1 sequence (O14842 whole entry): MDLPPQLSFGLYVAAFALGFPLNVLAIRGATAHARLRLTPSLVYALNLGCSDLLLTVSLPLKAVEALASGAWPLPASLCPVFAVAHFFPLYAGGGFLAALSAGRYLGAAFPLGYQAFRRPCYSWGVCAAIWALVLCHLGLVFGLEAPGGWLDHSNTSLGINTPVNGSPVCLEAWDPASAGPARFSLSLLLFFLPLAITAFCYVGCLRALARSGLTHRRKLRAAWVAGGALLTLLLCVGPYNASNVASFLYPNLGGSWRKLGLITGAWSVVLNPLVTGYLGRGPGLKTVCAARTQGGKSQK

Q: `Cc1cc(F)ccc1-n1cc(Cl)c2ccc(COc3ccc(CCC(=O)O)cc3)cc21` [Example 22, 3-{4-[3-chloro-1-(4-fluoro-2-methyl-phenyl)-1H-indol-6-ylmethoxy)-phenyl]-propanoic acid] was tested. Which EC50 did it give?
A: 0.04 µM

Q: For `CC#C[C@@H](CC(=O)O)c1ccc(OCc2cc(C)c3nn(Cc4ccccc4)cc3c2)cc1` [Example 127, (S)-3-[4-(2-benzyl-7-methyl-2H-indazol-5-ylmethoxy)-phenyl]-hex-4-ynoic acid], which EC50 is on record?
A: 0.001 to 0.05 µM

Q: With `CC#C[C@@H](CC(=O)O)c1ccc(OCc2ccnc3c2ccn3CC(C)C)cc1` [Example 204, (S)-3-[4-(1-isobutyl-1H-pyrrolo[2,3-b]pyridin-4-ylmethoxy)-phenyl]-hex-4-ynoic acid] as the molecule, how does the EC50 read?
A: 0.009 µM

Q: Which EC50 does the source give for `O=C(O)CC1CCOc2cc(OCc3ccc4c(cnn4Cc4cccnc4)c3)ccc21` (stereo not drawn) [Example 148, [7-(1-pyridin-3-ylmethyl-1H-indazol-5-ylmethoxy)-chroman-4-yl]-acetic acid] here?
A: ≥ 0.5 µM

Q: `O=C(O)C1CC1c1ccc(OCc2ccc3cnn(Cc4ccccc4)c3c2)cc1` (stereo not drawn) [Example 167, 2-[4-(1-benzyl-1H-indazol-6-ylmethoxy)-phenyl]-cyclopropane carboxylic acid] was tested. Which EC50 did it give?
A: 0.06 µM

Q: Which EC50 does the source give for `CC#C[C@@H](CC(=O)O)c1ccc(OCc2cccc3c2c(C)nn3CCCC)cc1` [Example 205, (S)-3-[4-(1-butyl-3-methyl-1H-indazol-4-ylmethoxy)-phenyl]-hex-4-ynoic acid] here?
A: 0.016 µM

Q: For `O=C(O)CC1CCc2cc(OCc3ccc4cnn(Cc5ccccc5)c4c3)ccc21` (stereo not drawn) [Example 109, [5-(1-benzyl-1H-indazol-6-ylmethoxy)-indan-1-yl]-acetic acid], which EC50 is on record?
A: 0.4 µM

Q: `CC#C[C@@H](CC(=O)O)c1ccc(OCc2ccc3c(cnn3CCc3ccccc3)c2)cc1` [Example 134, (S)-3-[4-(1-phenethyl-1H-indazol-5-ylmethoxy)-phenyl]-hex-4-ynoic acid] was tested. Which EC50 did it give?
A: 0.004 µM

Q: How did the EC50 turn out when `CC#C[C@@H](CC(=O)O)c1ccc(OCc2ccc3c(cnn3CCOCC)c2)cc1` [Example 157, (S)-3-{4-[1-(2-ethoxy-ethyl)-1H-indazol-5-ylmethoxy]-phenyl}-hex-4-ynoic acid] was run?
A: 0.001 to 0.05 µM

Q: With `CC#C[C@@H](CC(=O)O)c1ccc(OCc2ccc3c(COC)nn(CC(C)C)c3c2C)cc1` [Example 196, (S)-3-[4-(1-isobutyl-3-methoxymethyl-7-methyl-1H-indazol-6-ylmethoxy)-phenyl]-hex-4-ynoic acid] as the molecule, how does the EC50 read?
A: 0.005 µM

Q: Which EC50 does the source give for `CC#C[C@@H](CC(=O)O)c1ccc(OCc2cc3cnn(CC(C)C)c3cc2C)cc1` [Example 183, (S)-3-[4-(1-isobutyl-6-methyl-1H-indazol-5-ylmethoxy)-phenyl]-hex-4-ynoic acid] here?
A: 0.001 to 0.05 µM

Q: How did the EC50 turn out when `CCOCCn1ncc2cc(COc3ccc4c(c3)OCCC4CC(=O)O)ccc21` (stereo not drawn) [Example 149, {7-[1-(2-ethoxy-ethyl)-1H-indazol-5-ylmethoxy]-chroman-4-yl}-acetic acid] was run?
A: ≥ 0.5 µM

Q: Which EC50 does the source give for `CC#C[C@@H](CC(=O)O)c1ccc(OCc2ccc3c(c2)c(C)nn3C(C)C)cc1` [Example 187, (S)-3-[4-(1-isopropyl-3-methyl-1H-indazol-5-ylmethoxy)-phenyl]-hex-4-ynoic acid] here?
A: 0.001 to 0.05 µM

Q: Which EC50 does the source give for `CC#C[C@@H](CC(=O)O)c1ccc(OCc2ccc3c(CN4CCCC4)nn(CC(C)C)c3c2C)cc1` [Example 217, (S)-3-[4-(1-isobutyl-7-methyl-3-pyrrolidin-1-ylmethyl-1H-indazol-6-ylmethoxy)-phenyl]-hex-4-ynoic acid] here?
A: 0.02 µM

Q: `CC#C[C@@H](CC(=O)O)c1ccc(OCc2ccc3ccn(Cc4ncccn4)c3c2C)cc1` [Example 64, (S)-3-[4-(7-methyl-1-pyrimidin-2-ylmethyl-1H-indol-6-ylmethoxy)-phenyl]-hex-4-ynoic acid] was tested. Which EC50 did it give?
A: 0.05 to 0.5 µM

Q: How did the EC50 turn out when `O=C(O)CC1CCOc2cc(OCc3ccc4c(cnn4CCc4ccccc4)c3)ccc21` (stereo not drawn) [Example 135, [7-(1-phenethyl-1H-indazol-5-ylmethoxy)-chroman-4-yl]-acetic acid] was run?
A: 0.2 µM

Q: Which EC50 does the source give for `O=C(O)CCc1ccc(NCc2ccc3c(Cl)cn(Cc4ccccc4)c3c2)cc1` [Example 5, 3-{4-[(1-benzyl-3-chloro-1H-indol-6-ylmethyl)-amino]-phenyl}-propanoic acid] here?
A: 0.03 µM

Q: How did the EC50 turn out when `Cn1ncc2ccc(COc3ccc([C@H](CC(=O)O)c4ccon4)cc3)cc21` [Example 101, (S)-3-isoxazol-3-yl-3-[4-(1-methyl-1H-indazol-6-ylmethoxy)-phenyl]-propanoic acid] was run?
A: 0.09 µM

Q: How did the EC50 turn out when `Cc1c(COc2ccc([C@H](CC(=O)O)c3ccon3)cc2)ccc2ccn(Cc3cnccn3)c12` [Example 89, (S)-3-isoxazol-3-yl-3-[4-(7-methyl-1-pyrazin-2-ylmethyl-1H-indol-6-ylmethoxy)-phenyl]-propanoic acid] was run?
A: 0.03 µM

Q: For `CC#C[C@@H](CC(=O)O)c1ccc(OCc2cccc3c2c(F)nn3CC2CC2)cc1` [Example 200, (S)-3-[4-(1-cyclopropylmethyl-3-fluoro-1H-indazol-4-ylmethoxy)-phenyl]-hex-4-ynoic acid], which EC50 is on record?
A: 0.009 µM

Q: Which EC50 does the source give for `Cc1cc(F)ccc1-n1ccc2ccc(COc3ccc(CCC(=O)O)cc3)cc21` [Example 17, 3-{4-[1-(4-fluoro-2-methyl-phenyl)-1H-indol-6-ylmethoxy]-phenyl}-propanoic acid] here?
A: 0.007 µM

Q: Which EC50 does the source give for `CC#C[C@@H](CC(=O)O)c1ccc(OCc2cc3c(cnn3Cc3ccccc3)cc2F)cc1` [Example 122, (S)-3-[4-(1-benzyl-5-fluoro-1H-indazol-6-ylmethoxy)-phenyl]-hex-4-ynoic acid] here?
A: 0.001 to 0.05 µM

Q: `Cc1c(COc2ccc(CCC(=O)O)cc2)ccc2ccn(-c3ccsc3)c12` [Example 16, 3-[4-(7-methyl-1-thiophen-3-yl-1H-indol-6-ylmethoxy)-phenyl]-propanoic acid] was tested. Which EC50 did it give?
A: 0.02 µM

Q: `O=C(O)CC1CCOc2cc(OCc3ccc4c(cnn4CC4CCCCC4)c3)ccc21` (stereo not drawn) [Example 139, [7-(1-cyclohexyl methyl-1H-indazol-5-ylmethoxy)-chroman-4-yl]-acetic acid] was tested. Which EC50 did it give?
A: 0.3 µM

Q: For `CC(C)n1ccc2ccc(CNc3ccc(CCC(=O)O)cc3)cc21` [Example 1], which EC50 is on record?
A: 0.1 µM

Q: How did the EC50 turn out when `CC#C[C@@H](CC(=O)O)c1ccc(OCc2ccc3ccn(Cc4ccccc4F)c3c2C)cc1` [Example 37, (S)-3-{4-[1-(2-fluoro-benzyl)-7-methyl-1H-indol-6-ylmethoxy]-phenyl}-hex-4-ynoic acid] was run?
A: 0.04 µM

Q: For `O=C(O)CCc1ccc(OCc2ccc3ccn(CC4CCCCC4)c3c2)cc1` [Example 19, 3-[4-(1-cyclohexylmethyl-1H-indol-6-ylmethoxy)-phenyl]-propanoic acid], which EC50 is on record?
A: 0.4 µM

Q: How did the EC50 turn out when `CC#C[C@@H](CC(=O)O)c1ccc(OCc2cc(C)c3c(cnn3Cc3ccccc3)c2)cc1` [Example 126, (S)-3-[4-(1-benzyl-7-methyl-1H-indazol-5-ylmethoxy)-phenyl]-hex-4-ynoic acid] was run?
A: 0.001 to 0.05 µM

Q: For `CC#C[C@@H](CC(=O)O)c1ccc(OCc2ccc3ccn(Cc4csc(C)n4)c3c2C)cc1` [Example 57, (S)-3-{4-[7-methyl-1-(2-methyl-thiazol-4-ylmethyl)-1H-indol-6-ylmethoxy]-phenyl}-hex-4-ynoic acid], which EC50 is on record?
A: 0.001 to 0.05 µM

Q: How did the EC50 turn out when `CC(CC(=O)O)c1ccc(OCc2ccc3cnn(Cc4ccccc4)c3c2)cc1` (stereo not drawn) [Example 117, 3-[4-(1-benzyl-1H-indazol-6-ylmethoxy)-phenyl]-butyric acid] was run?
A: 0.05 µM
